pIC50: −log10 of the molar value.
Each compound was assayed against BTK (Homo sapiens (Human), UniProt Q06187) (assay: In vitro BTK kinase assay: Btk-PolyGAT-LS assay). Settings: ATP 10 μM, polyGAT 100 nM, BTK 0.25 nM, 30 minutes.
Format: biochemical

Sequence of BTK (Q06187 whole entry): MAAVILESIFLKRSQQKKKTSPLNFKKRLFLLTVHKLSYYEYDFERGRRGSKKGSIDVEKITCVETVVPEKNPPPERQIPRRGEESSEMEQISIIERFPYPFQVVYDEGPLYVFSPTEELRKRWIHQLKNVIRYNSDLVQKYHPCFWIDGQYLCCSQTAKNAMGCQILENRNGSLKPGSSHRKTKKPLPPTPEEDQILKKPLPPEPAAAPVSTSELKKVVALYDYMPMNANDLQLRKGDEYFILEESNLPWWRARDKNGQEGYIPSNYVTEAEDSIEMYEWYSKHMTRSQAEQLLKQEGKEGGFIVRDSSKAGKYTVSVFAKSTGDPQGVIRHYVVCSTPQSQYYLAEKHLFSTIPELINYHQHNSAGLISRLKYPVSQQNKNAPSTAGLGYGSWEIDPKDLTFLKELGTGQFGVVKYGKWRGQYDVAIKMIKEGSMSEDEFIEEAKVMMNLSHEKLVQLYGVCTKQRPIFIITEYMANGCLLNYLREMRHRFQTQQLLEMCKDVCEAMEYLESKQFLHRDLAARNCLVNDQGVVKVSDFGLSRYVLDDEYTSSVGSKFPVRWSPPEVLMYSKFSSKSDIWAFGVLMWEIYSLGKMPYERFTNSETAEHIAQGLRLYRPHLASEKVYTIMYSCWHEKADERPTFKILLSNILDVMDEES

SMILES | pIC50
C=CC(=O)N1CC[C@@H](Oc2cnccc2-c2ccc(CNC(=O)c3cn(C(C)(C)C)nn3)c(C)c2)C1 (single isomer, unassigned) [Example 35] | < 8.00
C=CC(=O)N1CC[C@H](Oc2cnccc2-c2ccc(CNC(=O)c3cn(C(C)(C)C)nn3)c(C)c2)C1 (single isomer, unassigned) [Example 36] | 8.00 to 9.00
C=CC(=O)N(C)CCOc1cnccc1-c1ccc(CNC(=O)c2noc(C(C)(C)C)n2)cc1F [Example 13, 5-(tert-butyl)-N-(3-fluoro-4-(3-(2-(N-methylacrylamido)ethoxy)pyridin-4-yl)benzyl)-1,2,4-oxadiazole-3-carboxamide] | > 9.00
C=CC(=O)N(C)CCOc1cnccc1-c1ccc(CNC(=O)c2noc(C(C)(C)C)n2)c(C(F)(F)F)c1 [Example 14, 5-(tert-butyl)-N-(4-(3-(2-(N-methylacrylamido)ethoxy)pyridin-4-yl)-2-(trifluoromethyl)benzyl)-1,2,4-oxadiazole-3-carboxamide] | > 9.00
C=CC(=O)N(C)CCOc1cnccc1-c1ccc(CNC(=O)c2ccn(C(C)(C)C)n2)c(Cl)c1F [Example 15, 1-(tert-butyl)-N-(2-chloro-3-fluoro-4-(3-(2-(N-methylacrylamido)ethoxy)pyridin-4-yl)benzyl)-1H-pyrazole-3-carboxamide] | 8.00 to 9.00
C=CC(=O)N(C)CCOc1cnccc1-c1ccc(CNC(=O)c2cc(C(C)(C)C)on2)c(C)c1 [Example 16, 5-(tert-butyl)-N-(2-methyl-4-(3-(2-(N-methylacrylamido)ethoxy)pyridin-4-yl)benzyl)isoxazole-3-carboxamide] | > 9.00
C=CC(=O)N(C)CCOc1cnccc1-c1ccc(CNC(=O)c2cc(C(C)(C)C)on2)c(F)c1F [Example 17, 5-(tert-butyl)-N-(2,3-difluoro-4-(3-(2-(N-methylacrylamido)ethoxy)pyridin-4-yl)benzyl)isoxazole-3-carboxamide] | > 9.00
C=CC(=O)N(C)CC(=O)Nc1cncnc1-c1ccc(CNC(=O)c2cn(C(C)(C)C)nn2)c(C)c1 [Example 29, 1-(tert-butyl)-N-(2-methyl-4-(5-(2-(N-methylacrylamido)acetamido)pyrimidin-4-yl)benzyl)-1H-1,2,3-triazole-4-carboxamide] | > 9.00
C=CC(=O)NCC(=O)Nc1cncnc1-c1ccc(CNC(=O)c2cn(C(C)(C)C)nn2)c(C)c1 [Example 30, N-(4-(5-(2-acrylamidoacetamido)pyrimidin-4-yl)-2-methylbenzyl)-1-(tert-butyl)-1H-1,2,3-triazole-4-carboxamide] | 8.00 to 9.00
C=CC(=O)N1CCC(Oc2cnccc2-c2ccc(CNC(=O)c3cn(C(C)(C)C)nn3)c(C)c2)C1 (stereo not drawn) [Example 34, N-(4-(3-((1-acryloylpyrrolidin-3-yl)oxy)pyridin-4-yl)-2-methylbenzyl)-1-(tert-butyl)-1H-1,2,3-triazole-4-carboxamide] | < 8.00
C#CC(=O)N1CCCC1COc1cnccc1-c1ccc(CNC(=O)c2cn(C(C)(C)C)nn2)c(C)c1F (stereo not drawn) [Example 48, 1-(tert-butyl)-N-(3-fluoro-2-methyl-4-(3-((1-propioloylpyrrolidin-2-yl)methoxy)pyridin-4-yl)benzyl)-1H-1,2,3-triazole-4-carboxamide] | 8.00 to 9.00
C=CC(=O)N1CCC(COc2cnccc2-c2ccc(CNC(=O)c3cn(C(C)(C)C)nn3)c(C)c2F)C1 (stereo not drawn) [Example 51, N-(4-(3-((1-acryloylpyrrolidin-3-yl)methoxy)pyridin-4-yl)-3-fluoro-2-methylbenzyl)-1-(tert-butyl)-1H-1,2,3-triazole-4-carboxamide] | > 9.00
C=CC(=O)N1CC[C@H]1COc1cnccc1-c1ccc(CNC(=O)c2ccc(C(F)(F)F)nc2)c(C)c1 [Example 52, (S)-N-(4-(3-((1-acryloylazetidin-2-yl)methoxy)pyridin-4-yl)-2-methylbenzyl)-6-(trifluoromethyl)nicotinamide] | < 8.00

The compounds below were run on CD69 expression on CD19+ B cells in human whole blood (assay: In vitro whole blood CD69 assay). Settings: B-cell; Whole Blood CD69 inhibition; human heparinized blood, anti-human IgD stimulation, CD19+ B cells expressing CD69; read-out: IC50.
Format: cell-based

SMILES | pIC50
C=CC(=O)N1CC[C@@H](Oc2cnccc2-c2ccc(CNC(=O)c3cn(C(C)(C)C)nn3)c(C)c2)C1 (single isomer, unassigned) [Example 35] | < 6.00
C=CC(=O)N1CC[C@H](Oc2cnccc2-c2ccc(CNC(=O)c3cn(C(C)(C)C)nn3)c(C)c2)C1 (single isomer, unassigned) [Example 36] | < 6.00

— patent publication US12570631B2, “Substituted N-(4-(pyrimidin and pyridin-4-yl)benzylcarboxamides and its use for treating disorders responsive to inhibition of Btk” (BIOGEN MA INC., priority 2019, dated 2026)
